Test results reported in ChEMBL document CHEMBL4041539, “1,2,3-Triazole-nimesulide hybrid: Their design, synthesis and evaluation as potential anticancer agents” (Bioorg Med Chem Lett, 2017).

What was measured:
[1] = biological target: 3',5'-cyclic-AMP phosphodiesterase 4B (Homo sapiens) (UniProt Q07343); experiment: Inhibition of recombinant His-tagged PDE4B1 (unknown origin) expressed in baculovirus infected sf9 cells at 10 uM using cAMP as substrate preincubated for 15 mins followed by cAMP addition measured after 1 hr by PDE light HTS assay relative to control
[2] = tested on: A549; experiment: Growth inhibition of human A549 cells after 48 hrs by MTT assay; format: functional, cell-based; conditions: A549, 48 h
[3] = tested on: HepG2; experiment: Growth inhibition of human HepG2 cells after 48 hrs by MTT assay; format: functional, cell-based; conditions: HepG2, 48 h
[4] = tested on: HEK293; experiment: Cytotoxicity against HEK293 cells up to 10 uM after 48 hrs by MTT assay; format: cell-based; conditions: human, hek293, 48 h
[5] = tested on: DU-145; experiment: Growth inhibition of human DU145 cells after 48 hrs by MTT assay; format: functional, cell-based; conditions: DU-145, 48 h
[6] = tested on: HeLa; experiment: Growth inhibition of human HeLa cells after 48 hrs by MTT assay; format: functional, cell-based
[7] = biological target: Prostaglandin G/H synthase 2 (Homo sapiens) (UniProt P35354); experiment: Inhibition of human COX2 expressed in baculovirus infected sf9 microsomes at 10 uM using arachidonic acid as substrate preincubated for 15 mins followed by substrate addition by TMPD oxidation based assay relative to control
Prostaglandin G/H synthase 2 (Homo sapiens), sequence (P35354 whole entry, looked up): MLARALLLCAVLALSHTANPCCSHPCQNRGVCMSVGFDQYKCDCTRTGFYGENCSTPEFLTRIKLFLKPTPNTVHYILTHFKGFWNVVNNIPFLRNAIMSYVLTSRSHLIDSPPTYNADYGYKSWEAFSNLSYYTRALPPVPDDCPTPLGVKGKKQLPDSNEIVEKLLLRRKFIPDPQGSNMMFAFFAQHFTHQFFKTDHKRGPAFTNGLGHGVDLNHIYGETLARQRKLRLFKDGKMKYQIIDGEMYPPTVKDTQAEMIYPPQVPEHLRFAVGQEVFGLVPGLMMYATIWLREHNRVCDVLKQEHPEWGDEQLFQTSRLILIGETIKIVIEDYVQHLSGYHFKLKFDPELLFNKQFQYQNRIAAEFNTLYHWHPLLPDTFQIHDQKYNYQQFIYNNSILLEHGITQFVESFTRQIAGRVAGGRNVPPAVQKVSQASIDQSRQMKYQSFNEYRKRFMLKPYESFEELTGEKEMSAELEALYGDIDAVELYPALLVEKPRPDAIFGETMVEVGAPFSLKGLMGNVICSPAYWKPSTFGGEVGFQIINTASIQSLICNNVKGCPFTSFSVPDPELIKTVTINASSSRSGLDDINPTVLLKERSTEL

3',5'-cyclic-AMP phosphodiesterase 4B (Homo sapiens), sequence (Q07343 whole entry): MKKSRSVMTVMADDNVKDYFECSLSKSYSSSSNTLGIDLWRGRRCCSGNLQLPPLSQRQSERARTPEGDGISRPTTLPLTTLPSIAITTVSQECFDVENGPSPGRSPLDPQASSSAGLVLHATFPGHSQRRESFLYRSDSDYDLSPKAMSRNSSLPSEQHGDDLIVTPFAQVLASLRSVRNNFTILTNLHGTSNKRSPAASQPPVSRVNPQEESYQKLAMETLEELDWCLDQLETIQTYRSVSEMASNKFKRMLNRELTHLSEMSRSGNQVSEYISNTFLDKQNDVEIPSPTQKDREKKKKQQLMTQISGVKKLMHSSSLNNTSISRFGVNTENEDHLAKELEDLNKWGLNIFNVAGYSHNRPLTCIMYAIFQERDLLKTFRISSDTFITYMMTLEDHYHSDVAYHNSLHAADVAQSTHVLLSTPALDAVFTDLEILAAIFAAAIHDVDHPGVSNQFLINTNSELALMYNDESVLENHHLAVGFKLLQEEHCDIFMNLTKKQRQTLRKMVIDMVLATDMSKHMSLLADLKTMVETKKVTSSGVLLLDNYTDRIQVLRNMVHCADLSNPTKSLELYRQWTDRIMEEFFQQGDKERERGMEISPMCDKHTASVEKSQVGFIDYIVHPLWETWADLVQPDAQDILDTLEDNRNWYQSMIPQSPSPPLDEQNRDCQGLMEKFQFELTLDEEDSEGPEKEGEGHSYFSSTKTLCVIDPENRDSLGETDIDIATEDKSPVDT

inhibition [1] [%] | IC50 [2] [µM] | IC50 [3] [µM] | IC50 [5] [µM] | IC50 [6] [µM] | inhibition [7] [%] | SMILES | Activity [4]
– | 8.3 | 19.5 | 9.1 | 12.8 | – | CS(=O)(=O)Nc1ccc(-n2cc(COc3ccc4ccccc4c3)nn2)cc1Oc1ccccc1 | Non-Toxic
– | – | 18.3 | 11.2 | – | – | Cc1ccc(-c2cn(-c3ccc(NS(C)(=O)=O)c(Oc4ccccc4)c3)nn2)cc1 | Non-Toxic
67.5 | 6.7 | 9.8 | 5.9 | 7.9 | – | Cc1cc(OCc2cn(-c3ccc(NS(C)(=O)=O)c(Oc4ccccc4)c3)nn2)ccc1Cl | Non-Toxic
– | 29.9 | 13.6 | 14.2 | 21.9 | – | CS(=O)(=O)Nc1ccc(-n2cc(-c3ccccc3)nn2)cc1Oc1ccccc1 | Non-Toxic

More lines, now with the values behind:

SMILES | inhibition [1] [%] | IC50 [2] [µM] | IC50 [3] [µM] | IC50 [5] [µM] | IC50 [6] [µM] | inhibition [7] [%] | Activity [4]
CS(=O)(=O)Nc1ccc([N+](=O)[O-])cc1Oc1ccccc1 [NIMESULIDE] | 52 | 67.8 | 35.2 | – | – | – | –
CS(=O)(=O)Nc1ccc(-n2cc(COc3ccc([N+](=O)[O-])cc3)nn2)cc1Oc1ccccc1 | 70.2 | 6.6 | – | 7.2 | – | – | Non-Toxic
CS(=O)(=O)Nc1ccc(-n2cc(COc3ccccc3Cl)nn2)cc1Oc1ccccc1 | – | 53.8 | 25.3 | 21.1 | 38.6 | – | Non-Toxic
CS(=O)(=O)Nc1ccc(-n2cc(COc3ccc(Cl)cc3)nn2)cc1Oc1ccccc1 | 62.8 | 7.1 | 7.5 | 6.4 | 7.8 | 23 | Non-Toxic
Cc1ccc(OCc2cn(-c3ccc(NS(C)(=O)=O)c(Oc4ccccc4)c3)nn2)cc1 | – | 8 | 13 | 8.2 | 15.8 | – | Non-Toxic
